Results from patent US20130190169A1, “SYNERGISTIC FUNGICIDAL COMBINATION” (priority 2010, published 2013).

System: strain Mg Ref 1 of M. graminicola
Assay: In vitro evaluation of the sensitivity level of M. graminicola towards epoxiconazole and folpet alone or in admixture (mycelial growth by optical density, 96-well microtitre plate, Wadley method)
Assay type: cell-based, Mycosphaerella graminicola
Details: Zymoseptoria tritici, 168 h, fungicide used alone, 7 days, 19° C., OD 405 nm
Experimental: The Wadley method is well-known method for determining whether synergy exists. In the Wadley method, synergistic activity is determined from dose response curves. With this method, the efficacy of the active ingredient (“a.i.”) is determined by comparing the degree of fungal attack on treated plants with that on untreated, similarly inoculated and incubated check plants. Each a.i. is generally tested at multiple (e.g., 6) concentrations, and dose response curves are generated. The dose response curves are used to establish the EC50 (i.e., the effective concentration of a.i. providing 50% disease control) of the individual compounds as well as of the combinations (EC50observed). The experimentally found values of the mixture at a given weight ratio are compared ith the values that would have been found were only a complementary efficacy of the components was present (EC50 (A+B)expected). The EC50 (A+B)expected is generally calculated according to Wadley (Levi et al., EPPO-Bulletin 16, 1986, 651-657) or (Wadley, F. M., U.S. Dep. Agric., Res. Adm., Bur. Entomol. And Plant Quar. ET-223, 1945, 8) as follows:
EC50(A+B)expected−(a+b)/[(a/EC50(A)observed)+b/EC50(B)observed)] […]
The degree of mycelial growth in the liquid medium was assessed by measuring the optical density of the wells containing the spore suspensions and fungicide concentrations. […]

Row | Structure (SMILES) | EC50
1 | Fc1ccc([C@]2(Cn3cncn3)O[C@H]2c2ccccc2Cl)cc1 (racemic) [Epoxiconazole, (2RS;3SR)-1-[3-(2-chlorophenyl)-2,3-epoxy-2-(4-fluorophenyl)propyl]-1H-1,2,4-triazole] | 0.01 µg/mL
2 | O=C1c2ccccc2C(=O)N1SC(Cl)(Cl)Cl [Folpet, N-(trichloromethanesulfenyl)phthalimide] | 2.39 µg/mL
